Where two headings read alike, the source gives them in different places.
How the values were obtained:
Format in all cases: in vivo
[1] = test system: blackgrass (Alopecurus myosuroides); experiment: Test A postemergence; conditions: Alopecurus myosuroides, post-emergence, 240 h, postemergence; for pest or weed control at 125 g/ha: 125 g ai/ha
Outline: (§1)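 In a loam soil and sand blend, planted seeds got a preemergence directed soil spray, and young plants at the one- to two-leaf stage, 2–10 cm high, got a postemergence application; ~10 d greenhouse hold; injury rated visually, 0 = none, 100 = complete control.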

[2] = test system: Galium (catchweed bedstraw, Galium aparine); experiment: Test A postemergence; conditions: Galium, post-emergence, 240 h, postemergence; for pest or weed control at 125 g/ha: 125 g ai/ha
Outline: as §1

[3] = test system: corn (Zea mays); experiment: Test A postemergence; conditions: Zea mays, post-emergence, 240 h, postemergence
Outline: as §1

[4] = test system: pigweed (Amaranthus retroflexus); experiment: Test A postemergence; conditions: Amaranthus retroflexus, post-emergence, 240 h, postemergence; for pest or weed control at 125 g/ha: 125 g ai/ha
Outline: as §1

[5] = test system: Kochia (Kochia scoparia); experiment: Test A postemergence; conditions: Bassia scoparia, post-emergence, 240 h, postemergence; for pest or weed control at 125 g/ha: 125 g ai/ha
Outline: as §1

[6] = test system: wheat (Triticum aestivum); experiment: Test A postemergence; conditions: Triticum aestivum, post-emergence, 240 h, postemergence; for plant injury at 125 g/ha: 125 g ai/ha
Outline: as §1

[7] = test system: giant foxtail (Setaria faberii); experiment: Test A postemergence; conditions: Setaria faberi, post-emergence, 240 h, postemergence; for pest or weed control at 125 g/ha: 125 g ai/ha
Outline: as §1

[8] = test system: ragweed (common ragweed, Ambrosia elatior); experiment: Test A postemergence; conditions: Ambrosia artemisiifolia, post-emergence, 240 h, postemergence; for pest or weed control at 125 g/ha: 125 g ai/ha
Outline: as §1

[9] = test system: barnyardgrass (Echinochloa crus-galli); experiment: Test A postemergence; conditions: Echinochloa crus-galli, post-emergence, 240 h, postemergence; for pest or weed control at 125 g/ha: 125 g ai/ha
Outline: as §1

[10] = test system: ryegrass, Italian (Italian ryegrass, Lolium multiflorum); experiment: Test A postemergence; conditions: Lolium multiflorum, post-emergence, 240 h, postemergence; for pest or weed control at 125 g/ha: 125 g ai/ha
Outline: as §1

[11] = test system: Kochia (Kochia scoparia); experiment: Test A preemergence; conditions: Bassia scoparia, pre-emergence, 240 h, preemergence; for pest or weed control at 125 g/ha: 125 g ai/ha; for pest or weed control at 500 g/ha: 500 g ai/ha
Outline: as §1

[12] = test system: ducksalad (Heteranthera limosa); experiment: Test B flooded paddy test; conditions: Heteranthera limosa, Flood, 250 g ai/ha, read-out: Ducksalad plant response rating
Outline: (§2)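 2-leaf plants; pots flooded 3 cm over soil; cpd added to paddy water; depth held; greenhouse 13–15 d; visual rating vs controls, 0 = no effect, 100 = complete control.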

[13] = test system: rice (Oryra sativa); experiment: Test B flooded paddy test; conditions: Oryza sativa, Flood, 250 g ai/ha, read-out: Rice plant response rating
Outline: as §2

[14] = test system: barnyardgrass (Echinochloa crus-galli); experiment: Test B flooded paddy test; conditions: Echinochloa crus-galli, Flood, 250 g ai/ha, read-out: Barnyardgrass plant response rating
Outline: as §2

[15] = test system: sedge, umbrella (small-flower umbrella sedge, Cyperus difformis); experiment: Test B flooded paddy test; conditions: Cyperus difformis, Flood, 250 g ai/ha, read-out: Sedge, Umbrella plant response rating
Outline: as §2

[16] = scale of 0 to 100 where 0 is no effect and 100 is complete control
[17] = 0 to 100 scale where 0 is no effect and 100 is complete control

O=C1NC[C@H](c2cnc(C(F)(F)F)nc2)[C@H]1C(=O)Nc1ccccc1F [Compound 741]
pest or weed control at 125 g/ha ([1]; visual injury after approximately 10 d, 0 to 100 scale (0 no effect, 100 complete control), read-out: Plant response rating, Blackgrass): 0% | pest or weed control at 125 g/ha ([2]; visual injury after approximately 10 d, 0 to 100 scale (0 no effect, 100 complete control), read-out: Plant response rating, Galium): 0% | Corn plant response rating (crop injury, 0 = no effect, 100 = complete kill) at 125 g/ha ([3]; 125 g ai/ha, visual injury after approximately 10 d, 0 to 100 scale (0 no effect, 100 complete control)): 0% | pest or weed control at 125 g/ha ([4]; visual injury after approximately 10 d, 0 to 100 scale (0 no effect, 100 complete control), read-out: Plant response rating, Pigweed): 0% | pest or weed control at 125 g/ha ([5]; visual injury after approximately 10 d, 0 to 100 scale (0 no effect, 100 complete control), read-out: Plant response rating, Kochia): 0% | plant injury at 125 g/ha ([6]; visual injury after approximately 10 d, 0 to 100 scale (0 no effect, 100 complete control), read-out: Plant response rating, Wheat): 0% | pest or weed control at 125 g/ha ([7]; visual injury after approximately 10 d, 0 to 100 scale (0 no effect, 100 complete control), read-out: Plant response rating, Foxtail, Giant): 0% | pest or weed control at 125 g/ha ([8]; visual injury after approximately 10 d, 0 to 100 scale (0 no effect, 100 complete control), read-out: Plant response rating, Ragweed): 0% | pest or weed control at 125 g/ha ([9]; visual injury after approximately 10 d, 0 to 100 scale (0 no effect, 100 complete control), read-out: Plant response rating, Barnyardgrass): 0% | pest or weed control at 125 g/ha ([10]; visual injury after approximately 10 d, 0 to 100 scale (0 no effect, 100 complete control), read-out: Plant response rating, Ryegrass, Italian): 0% | pest or weed control at 125 g/ha ([11]; visual rating after approx. 10 d, 0 to 100 scale where 0 is no effect and 100 is complete control, read-out: Plant response rating, Kochia): 0% | pest or weed control at 500 g/ha ([11]; 0 to 100 scale, 0 = no effect, 100 = complete control, read-out: Plant response rating, Kochia): 30% | pest or weed control at 250 g/ha [12, 16]: 90% | pest or weed control at 250 g/ha [13, 16]: 0% | pest or weed control at 250 g/ha [14, 16]: 0% | pest or weed control at 250 g/ha [15, 16]: 40%

N#Cc1cc([C@H]2CNC(=O)[C@@H]2C(=O)Nc2ccccc2F)ccc1F [Compound 1199]
pest or weed control at 125 g/ha ([1]; visual injury vs untreated controls after approx. 10 d, 0 = no effect, 100 = complete control, read-out: Blackgrass plant response rating (0 to 100 scale)): 0% | pest or weed control at 500 g/ha ([1]; 500 g ai/ha, 0 to 100 scale, 0 is no effect, 100 is complete control, read-out: Blackgrass plant response rating): 0% | pest or weed control at 125 g/ha ([2]; visual injury vs untreated controls after approx. 10 d, 0 = no effect, 100 = complete control, read-out: Galium plant response rating (0 to 100 scale)): 20% | pest or weed control at 500 g/ha ([2]; 500 g ai/ha, 0 to 100 scale, 0 is no effect, 100 is complete control, read-out: Galium plant response rating): 40% | plant injury at 125 g/ha ([3]; 125 g ai/ha, visual injury vs untreated controls after approx. 10 d, 0 = no effect, 100 = complete control, read-out: Corn plant response rating (0 to 100 scale)): 0% | plant injury at 500 g/ha ([3]; 500 g ai/ha, 0 to 100 scale, 0 is no effect, 100 is complete control, read-out: Corn plant response rating): 0% | pest or weed control at 125 g/ha ([4]; visual injury vs untreated controls after approx. 10 d, 0 = no effect, 100 = complete control, read-out: Pigweed plant response rating (0 to 100 scale)): 0% | pest or weed control at 500 g/ha ([4]; 500 g ai/ha, 0 to 100 scale, 0 is no effect, 100 is complete control, read-out: Pigweed plant response rating): 20% | pest or weed control at 125 g/ha ([5]; visual injury vs untreated controls after approx. 10 d, 0 = no effect, 100 = complete control, read-out: Kochia plant response rating (0 to 100 scale)): 20% | pest or weed control at 500 g/ha ([5]; 500 g ai/ha, 0 to 100 scale, 0 is no effect, 100 is complete control, read-out: Kochia plant response rating): 40% | plant injury at 125 g/ha ([6]; visual injury vs untreated controls after approx. 10 d, 0 = no effect, 100 = complete control, read-out: Wheat plant response rating (0 to 100 scale)): 0% | plant injury at 500 g/ha ([6]; 500 g ai/ha, 0 to 100 scale, 0 is no effect, 100 is complete control, read-out: Wheat plant response rating): 0% | pest or weed control at 125 g/ha ([7]; visual injury vs untreated controls after approx. 10 d, 0 = no effect, 100 = complete control, read-out: Foxtail, Giant plant response rating (0 to 100 scale)): 70% | pest or weed control at 500 g/ha ([7]; 500 g ai/ha, 0 to 100 scale, 0 is no effect, 100 is complete control, read-out: Foxtail, Giant plant response rating): 90% | pest or weed control at 125 g/ha ([8]; visual injury vs untreated controls after approx. 10 d, 0 = no effect, 100 = complete control, read-out: Ragweed plant response rating (0 to 100 scale)): 0% | pest or weed control at 500 g/ha ([8]; 500 g ai/ha, 0 to 100 scale, 0 is no effect, 100 is complete control, read-out: Ragweed plant response rating): 0% | pest or weed control at 125 g/ha ([9]; visual injury vs untreated controls after approx. 10 d, 0 = no effect, 100 = complete control, read-out: Barnyardgrass plant response rating (0 to 100 scale)): 70% | pest or weed control at 500 g/ha ([9]; 500 g ai/ha, 0 to 100 scale, 0 is no effect, 100 is complete control, read-out: Barnyardgrass plant response rating): 100% | pest or weed control at 125 g/ha ([10]; visual injury vs untreated controls after approx. 10 d, 0 = no effect, 100 = complete control, read-out: Ryegrass, Italian plant response rating (0 to 100 scale)): 0% | pest or weed control at 500 g/ha ([10]; 500 g ai/ha, 0 to 100 scale, 0 is no effect, 100 is complete control, read-out: Ryegrass, Italian plant response rating): 20% | pest or weed control at 125 g/ha ([11]; visual injury rating, 0 to 100 scale where 0 is no effect and 100 is complete control, approximately 10 d, read-out: Kochia plant response rating): 0% | pest or weed control at 500 g/ha ([11]; 0 to 100 scale where 0 is no effect and 100 is complete control, read-out: Kochia plant response rating): 0% | pest or weed control at 250 g/ha [12, 17]: 95% | pest or weed control at 250 g/ha [13, 17]: 0% | pest or weed control at 250 g/ha [14, 17]: 40% | pest or weed control at 250 g/ha [15, 17]: 0%
